# According to ChEMBL document CHEMBL6134779, “Design of Proteolytic-Resistant Antifungal Peptides by Utilizing Minimum d-Amino Acid Ratios” (J Med Chem, 2024):
# Activity calls are given as the source filed them. The rule behind the calls is not given here.
# Experiments:
# Candida albicans [1] = experiment: Antifungal activity against Fluconazole-resistant Candida albicans 56214 assessed as inhibition of fungal growth incubated for 48 hrs; format: functional
# Candida tropicalis = experiment: Antifungal activity against Candida tropicalis CGMCC 2.1975 assessed as inhibition of fungal growth incubated for 48 hrs; format: functional
# Candida albicans [2] = experiment: Antifungal activity against Candida albicans SP3902 assessed as inhibition of fungal growth incubated for 48 hrs; format: functional
# Candida albicans [3] = experiment: Antifungal activity against Candida albicans CGMCC 2.2086 infected in C57BL/6 mouse keratitis model assessed as reduction in mycelia in the eyes at 1 mg/ml administered as 10 uL eye drop every 5 mins for first 1 hr and every 30 mins for next 7 hrs by Schiff staining based assay; format: functional, organism-based; settings: route ou, time 8.0 hrs
# Candida albicans [4] = experiment: Antifungal activity against Candida albicans 14936 assessed as inhibition of fungal growth incubated for 48 hrs; format: functional
# Candida albicans [5] = experiment: Antifungal activity against Fluconazole-resistant Candida albicans 58288 assessed as inhibition of fungal growth incubated for 48 hrs; format: functional
# Candida albicans [6] = experiment: Antifungal activity against Candida albicans CGMCC 2.2086 assessed as inhibition of fungal growth incubated for 48 hrs; format: functional
# Candida albicans [7] = experiment: Antifungal activity against Candida albicans CGMCC 2.2086 infected in C57BL/6 mouse keratitis model assessed as reduction in clinical scores at 1 mg/ml administered as 10 uL eye drop every 5 mins for first 1 hr and every 30 mins for next 7 hrs; format: functional, organism-based; settings: route ou, time 8.0 hrs
# Candida albicans [8] = experiment: Antifungal activity against Candida albicans SP3903 assessed as inhibition of fungal growth incubated for 48 hrs; format: functional
# Candida parapsilosis = experiment: Antifungal activity against Candida parapsilosis CGMCC 2.3989 assessed as inhibition of fungal growth incubated for 48 hrs; format: functional; settings: Lodderomyces parapsilosis
# Candida albicans [9] = experiment: Antifungal activity against Candida albicans 17546 assessed as inhibition of fungal growth incubated for 48 hrs; format: functional
# Candida albicans [10] = experiment: Antifungal activity against Candida albicans CGMCC 2.2086 infected in C57BL/6 mouse keratitis model assessed as reduction in fungal cell count at 1 mg/ml administered as 10 uL eye drop every 5 mins for first 1 hr and every 30 mins for next 7 hrs; format: functional, organism-based; settings: route ou, time 8.0 hrs
# Candida albicans [11] = experiment: Antifungal activity against Candida albicans SP3931 assessed as inhibition of fungal growth incubated for 48 hrs; format: functional
# Candida albicans [12] = experiment: Antifungal activity against Candida albicans SP3876 assessed as inhibition of fungal growth incubated for 48 hrs; format: functional
# Candida albicans [13] = experiment: Antifungal activity against Candida albicans 56452 assessed as inhibition of fungal growth incubated for 48 hrs; format: functional
# [14] = Cytotoxicity against porcine IPEC-J2 cells assessed as reduction in cell viability at 128 uM incubated for 4 hrs by MTT assay; format: toxicity, cell-based, Sus scrofa; settings: pig, ipec-j2, 4 h
# Candida albicans [15] = experiment: Antifungal activity against Candida albicans CGMCC 2.2086 assessed as inhibition of fungal growth incubated for 48 hrs in presence of NH4Cl; format: functional
# [16] = Stability of the compound in MgCl2 assessed as change in secondary structure by CD spectra analysis; format: physicochemical
# Candida albicans [17] = experiment: Antifungal activity against Candida albicans CGMCC 2.2086 assessed as inhibition of fungal growth incubated for 48 hrs in presence of NaCl; format: functional
# [18] = Stability of the compound in NH4Cl assessed as change in secondary structure by CD spectra analysis; format: physicochemical
# [19] = Hemolytic activity in human red blood cells assessed as hemolysis rate at 512 uM incubated for 1 hr relative to control; format: toxicity, cell-based, Erythrocyte; settings: read-out: Activity
# Candida albicans [20] = experiment: Antifungal activity against Candida albicans CGMCC 2.2086 assessed as inhibition of fungal growth incubated for 48 hrs in presence of MgCl2; format: functional
# Candida albicans [21] = experiment: Antifungal activity against Candida albicans CGMCC 2.2086 assessed as inhibition of fungal growth incubated for 48 hrs in presence of FeCl3; format: functional
# Candida albicans [22] = experiment: Antifungal activity against Candida albicans CGMCC 2.2086 assessed as inhibition of fungal growth incubated for 48 hrs in presence of CaCl2; format: functional
# Candida albicans [23] = experiment: Antifungal activity against Candida albicans CGMCC 2.2086 assessed as inhibition of fungal growth incubated for 48 hrs in presence of ZnCl2; format: functional
# [24] = Stability of the compound in ZnCl2 assessed as change in secondary structure by CD spectra analysis; format: physicochemical
# [25] = Stability of the compound in FeCl3 assessed as change in secondary structure by CD spectra analysis; format: physicochemical
# [26] = Stability of the compound in KCl assessed as change in secondary structure by CD spectra analysis; format: physicochemical
# HEK293 = experiment: Cytotoxicity against HEK293 cells assessed as reduction in cell viability at 128 uM incubated for 4 hrs by MTT assay; format: toxicity, cell-based; settings: human, hek293, 4 h
# [27] = Stability of the compound in NaCl assessed as change in secondary structure by CD spectra analysis; format: physicochemical
# [28] = Hemolytic activity in human red blood cells assessed as hemolysis incubated for 1 hr; format: toxicity, cell-based, Erythrocyte
# Candida albicans [29] = experiment: Antifungal activity against Candida albicans CGMCC 2.2086 assessed as inhibition of fungal growth incubated for 48 hrs in presence of KCl; format: functional
# [30] = Stability of the compound in CaCl2 assessed as change in secondary structure by CD spectra analysis; format: physicochemical
SMILES,MIC95 (Candida albicans [1]),MIC95 (Candida tropicalis),MIC95 (Candida albicans [2]),MIC95 (Candida albicans [4]),MIC95 (Candida albicans [5]),MIC95 (Candida albicans [6]),MIC95 (Candida albicans [8]),MIC95 (Candida parapsilosis),MIC95 (Candida albicans [9]),MIC95 (Candida albicans [11]),MIC95 (Candida albicans [12]),MIC95 (Candida albicans [13]),further results
C[C@@H]1[C@H](O)[C@@H](C)/C=C/C=C/C=C/C=C/C=C/C=C/C=C/[C@H](O[C@@H]2O[C@H](C)[C@@H](O)[C@H](N)[C@@H]2O)C[C@@H]2O[C@](O)(C[C@@H](O)C[C@@H](O)[C@H](O)CC[C@@H](O)C[C@@H](O)CC(=O)O[C@H]1C)C[C@H](O)[C@H]2C(=O)O [AMPHOTERICIN B],0.25 µM,0.25 µM,0.25 µM,0.25 µM,0.25 µM,0.25 µM,0.25 µM,0.25 µM,0.25 µM,0.25 µM,0.25 µM,0.25 µM,Activity (Candida albicans [3]): Active; Mycelia In The Eyes Was Either Absent Or Minimal; Activity (Candida albicans [7]): Active; Activity (Candida albicans [10]): Active
CC(C)[C@H](N)C(=O)N[C@H](C(=O)N[C@H](CCCNC(=N)N)C(=O)N[C@@H](CCCNC(=N)N)C(=O)N[C@@H](Cc1c[nH]cn1)C(=O)N[C@H](C(=O)N[C@H](C(=O)N[C@H](C(=O)N[C@H](C(=O)N[C@H](CCCNC(=N)N)C(=O)N[C@@H](CCCNC(=N)N)C(=O)N[C@@H](Cc1c[nH]cn1)C(=O)N[C@H](C(=O)N[C@H](C(=O)N[C@H](C(=O)N[C@H](C(=O)N[C@H](CCCNC(=N)N)C(=O)N[C@@H](CCCNC(=N)N)C(=O)N[C@@H](Cc1c[nH]cn1)C(=O)N[C@H](C(=O)N[C@H](C(=O)N[C@H](C(=O)N[C@H](C(=O)N[C@H](CCCNC(=N)N)C(=O)N[C@@H](CCCNC(=N)N)C(=O)N[C@@H](Cc1c[nH]cn1)C(=O)N[C@H](C(=O)N[C@H](C(N)=O)C(C)C)C(C)C)C(C)C)C(C)C)C(C)C)C(C)C)C(C)C)C(C)C)C(C)C)C(C)C)C(C)C)C(C)C)C(C)C)C(C)C)C(C)C,4 µM,4 µM,8 µM,8 µM,8 µM,8 µM,4 µM,4 µM,8 µM,8 µM,8 µM,8 µM,"Activity [14]: Toxic; MIC95 (Candida albicans [15]): 8 µM; Stability [16]: Stable; MIC95 (Candida albicans [17]): 64 µM; Stability [18]: Stable; hemolysis at 1 h, 512 µM [19]: 21.7%; MIC95 (Candida albicans [20]): 16 µM; MIC95 (Candida albicans [21]): 16 µM; MIC95 (Candida albicans [22]): 32 µM; MIC95 (Candida albicans [23]): 32 µM; Stability [24]: Stable; Stability [25]: Stable; Stability [26]: Stable; Activity (HEK293): Toxic; Stability [27]: Unstable; HC50 at 1 h [28]: > 512 µM; MIC95 (Candida albicans [29]): 16 µM; Stability [30]: Stable"
